# Tests used:
# [1] = system: degenerative myoclonus epilepsy; test: Clinical Case 1: DN-1417 treatment of epileptic patient; format: in vivo, human
# Protocol: They were given DN-1417, 2 mg. i.m. at 10:00 A.M. every day for 2 weeks concomitantly with the prior antiepileptics.
# [2] = system: epilepsy, tuberous sclerosis (tonic convulsion and atypical absence); test: Clinical Case 2: DN-1417 treatment of epileptic patient; format: in vivo, human
# Protocol: In conjunction with the antiepileptic drugs so far used, DN-1417 was administered intramuscularly in doses of 0.5 mg. for 10 days and, then, in doses of 1 mg. for 4 days.
# Lennox's syndrome = test: Clinical Case 3: DN-1417 treatment of epileptic patient; format: in vivo, human
# Protocol: During the period from July 22 to Aug. 4, 1981, 1 mg of DN-1417 was administered intramuscularly once daily for 14 consecutive days, concomitantly with the antipileptics so far employed.
# West's syndrome = test: Clinical Case 6: DN-1417 treatment of epileptic patient; format: in vivo, human; settings: for Frequency of seizure occurrences: before DN-1417
# Protocol: Nitrazepam in dosage of 1.5 mg./day was administered in three divided doses to show less frequency of the seizure occurrences (from 10 times a day to 6-7 times a day). […] The drowsiness was fairly ameliorated but the frequency of the seizure occurrences was not reduced (10 times a day).
# DN-1417 in dosage of 0.03 mg./kg. (0.3 mg./day) was intravenously given for 22 days in addition to the treatment with nitrazepam in dosage of 0.6 mg./day.
# temporal lobe epilepsy = test: Clinical Case 5: DN-1417 treatment of epileptic patient; format: in vivo, human
# Protocol: In addition to the prior medication of antiepileptics (10 tablets of HYDANTOL F® each containing 25 mg. phenytoin, 8 mg. phenobarbital and 17 mg. caffeine and sodium benzoate, 1 g. of carbamazepine, 0.09 g. of phenobarbital and 250 mg. of actazolamide), DN-1417 was intramuscularly administered in dose of 1 mg./day for 2 weeks. […] From the 7th day of the DN-1417 treatment they began to explain their conditions as, "The time to get off the bed from awaking has been shortened." and "Became easy to get to the next action in doing anything."Improvement of such psychic symptoms was maintained for a week after the end of the DN-1417 treatment. Automatism occurred a week after the end of the DN-1417 treatment and impaired-consciousness seizure occurred twice in the 3rd week of post-treatment.
# [3] = system: epilepsy (tonic convulsion, tonoclonic convulsion and clonic convulsion); test: Clinical Case 4: DN-1417 treatment of epileptic patient; format: in vivo, human
# Protocol: During the period from July 22 to Aug. 4, 1981, DN-1417 was administered intramuscularly in daily doses of 1 mg. for 14 days, together with the antiepileptics so far employed.
# [4] = Blood concentrations of antiepileptics in Case 3
# Description: The treatment consisted of a multiple drug therapy using phenytoin, phenobarbital, sodium valproate, nitrazepam and clonazepam.
compound,measurement,setting,value
"NC(=O)[C@@H]1CCCN1C(=O)[C@H](Cc1c[nH]cn1)NC(=O)[C@@H]1CCC(=O)O1.O=C(O)CC(O)(CC(=O)O)C(=O)O [DN-1417, (S)-γ-butyrolactone-γ-carbonyl-L-histidyl-L-prolinamide citrate]",Time after withdrawal until photomyoclonic response reappeared,[1],about 80 days
same,Type of action from EEG changes and clinical symptoms,[1],antimyoclonic action though not a definite anticonvulsive action
same,Continuation of clinical improvement after withdrawal of the drug,[1]; 2 mg daily for 2 weeks,about 1 month
same,Side effect,[1]; 2 mg daily for 2 weeks,without any side effect
same,Overall clinical effect,[1]; 2 mg i.m. daily for 2 weeks with prior antiepileptics,"effective in improving myoclonus, cerebellar symptoms, psychic activity and EEG"
same,EEG,[1]; 3rd day of treatment,No improvement
same,Persistence of marked EEG improvements,[1]; after 2nd EEG at day 8 of treatment,about 50 days
same,EEG response to photic stimulation,[1]; day 8 of treatment,entirely normal
same,Overall clinical effect,[2],remarkable improvements in daily activity and improvements in clinical episode and EEG
same,Side effect,[2],no side effect
same,Clinical episodes,[2]; after 2 weeks,no clinical episodes
same,EEG,"[2]; after 2 weeks, EEG at sleep",frequency of paroxymal patterns was halved
same,Clinical episodes,"[2]; i.m. 0.5 mg for 10 days then 1 mg for 4 days with prior antiepileptics, after one week",No clinical episodes
same,Overall clinical effect,Lennox's syndrome,"decreased incidence of clinical episodes, improved EEG findings and remarkable improvements in daily life"
same,Side effect,Lennox's syndrome,no side effect
same,Clinical episodes,"Lennox's syndrome; 1 mg i.m. once daily for 14 days with prior antiepileptics, after one week",no clinical episode
same,Clinical episodes,Lennox's syndrome; after 2 weeks,one episode of atypical absence
same,EEG,Lennox's syndrome; after 2 weeks,no polyspike-and-slow wave complex and only a decreased sharp-and-slow wave complex
same,EEG,Lennox's syndrome; after one week,decrease in polyspike-and-slow wave complex but an increase in sharp-and-slow wave complex
same,Clinical episodes,Lennox's syndrome; one week after withdrawal,No clinical episode
same,EEG,Lennox's syndrome; one week after withdrawal,"less bursts, with an increased regularity of basal wave"
same,Overall clinical effect,West's syndrome,effective for West's syndrome
same,EEG,West's syndrome; 2 weeks after the DN-1417 treatment,did not show hypsarhythmia
same,Drowsiness,West's syndrome; after a week,drowsiness due to nitrazepam was reduced
same,EEG,West's syndrome; after a week,remained unchanged
same,Seizure frequency,"West's syndrome; from the 2nd week of treatment, same at the 3rd week",5-6 times a day
same,Side effects,West's syndrome; whole course,No side effects
same,EEG findings,temporal lobe epilepsy,No noteworthy change
same,Overall clinical effect,temporal lobe epilepsy,effective in this patient
same,Seizures during the treatment,temporal lobe epilepsy; 1 mg/day i.m. for 2 weeks with prior antiepileptics,autonomic seizure occurred once
same,Psychic symptoms such as decrease of volition,temporal lobe epilepsy; during DN-1417 treatment,improved
same,Activities of daily life and mental condition (summary),[3],A remarkable improvement
same,Clinical seizures (summary),[3],No change or a slight improvement
same,EEG (summary),[3],A moderate improvement
same,Overall evaluation,[3],moderate improvement
same,Side effect,[3],no apparent side effect
same,Epileptic seizures,"[3]; 1 mg i.m. daily for 14 days with prior antiepileptics, after one week",No epileptic seizure
same,EEG,[3]; after 2 weeks,"fair improvement in continuity, with a regularity"
same,Epileptic seizures,[3]; after 2 weeks,No epileptic seizure
same,EEG,[3]; after one week,remarkable improvement
same,Seizures after withdrawal,[3]; three weeks after withdrawal,Clonic convulsion appeared on day 6 after withdrawal
"O=C1CN=C(c2ccccc2)c2cc([N+](=O)[O-])ccc2N1 [Nitrazepam, nitrazepam, reference compound]",Adverse effects,West's syndrome; nitrazepam 1.5 mg/day,Severe drowsiness and stridor
same,Frequency of seizure occurrences,West's syndrome; nitrazepam 1.5 mg/day in three divided doses,6-7 times a day
same,Frequency of seizure occurrences,West's syndrome; nitrazepam reduced to 0.6 mg/day,10 times a day
"O=C1CN=C(c2ccccc2Cl)c2cc([N+](=O)[O-])ccc2N1 [clonazepam, reference compound]",Myoclonus at rest,"[1]; clonazepam 2 mg daily combined with other antiepileptics, before DN-1417",almost complete disappearance
CCC1(c2ccccc2)C(=O)NC(=O)NC1=O [phenobarbital],Blood concentration,"[4]; Case 3, after 2 weeks of DN-1417 1 mg i.m. daily with the antiepileptics",24600 ng/mL
same,Blood concentration,"[4]; Case 3, multiple drug therapy before DN-1417",18900 ng/mL
O=C1NC(=O)C(c2ccccc2)(c2ccccc2)N1 [phenytoin],Blood concentration,[4]; in vivo,9000 ng/mL
"CCCC(CCC)C(=O)[O-].[Na+] [sodium valproate, reference compound]",Convulsions,"[1]; after about 3 months on sodium valproate, before DN-1417",convulsions were inhibited
same,Myoclonus,"[1]; on sodium valproate, before DN-1417",remained prominent
same,Blood concentration,[4]; in vivo,36000 ng/mL
"ACTH: ACTH therapy; adrenocorticotropic hormones (SYSMEHFRWGKPVGKKRRPVKVYPNGAEDESAEAFPLEF; Corticotropin; UniProt P01189 138-176, looked up) [reference compound]",Effect of ACTH therapy,Lennox's syndrome; before DN-1417,with no avail

# — patent US4421745A, “Antiepileptics” (Takeda Chemical Industries, Ltd., priority 1981, dated 1983)
